Consider one molecule from EP0369733A2, “Fluorescent indicator dyes for alkali metal cations, their preparation and use” (THE REGENTS OF THE UNIVERSITY OF CALIFORNIA, priority 1988, dated 1990).

Data set [1] can be described thus: Non-specific quenching of fluorescence by CsCl. Format: physicochemical. The protocol: Selectivities of SBFP and SBFI against other cations are also adequate (Table I). […] Ratioing therefore not only normalizes for amount of dye in the optical path but also improves the discrimination against pH changes. […] Dissociation constants for Mg²⁺ and Ca²⁺ are high enough (about 60 mM and 38 mM respectively) for cytosolic levels of those ions to have insignificant effect. Curiously, Ca²⁺ is unique in causing a large hypsochromic shift of the emission peak, to 432 nm. All the above-mentioned salts except tetramethylammonium seem to cause a slight non-specific quenching of SBFI at very high concentrations. For example, CsCl causes no spectral shift at all, but 100, 200, and 500 mM CsCl depress the fluorescence by 9, 14, and 21% from the metal-free level. This effect is not a heavy-atom effect of Cs, since large excesses of Li⁺, Na⁺, and K⁺ also slightly quench their SBFI complexes. It may represent weak quenching by Cl⁻, since acetate and fluoride gave much less of the effect.

A short description of data set [2]: physchem. Particulars: 0.1 m tetramethylammonium chloride.
Method: • Footnote a: For molecular structures, see Fig. 1. • Footnote b: Except where otherwise noted, these dissociation constants were measured with the chelator dissolved in 0.1 M tetramethylammonium chloride, at a pH held high enough with 1-5 mM tris(hydroxymethyl)aminomethane for protonation to be insignificant. […] No correction has been made for the changing ionic strength of the solution, which started from 0.1 M and increased, but the absorbances and fluorescence amplitudes were applied for dilution of the dye and any slight quenching due to high concentrations of Cl⁻. • Footnote c: These protonation constants were determined in 0.1 M tetramethylammonium chloride, 10 mM tris(hydroxymethyl)aminomethane, titrated with 5 M H₃PO₄ to successively lower pH values measured with a Radiometer PHM84 meter.
Proton dissociation constants of the chelators were measured by spectrophotometry or spectrofluorometry of buffered solutions, containing either 100 mM tetramethylammonium chloride as inert supporting electrolyte, or 121.5 mM K⁺, 13.5 mM Na⁺, and 1 mM Mg²⁺ to simulate the cation environment of vertebrate cytoplasm (14). Traces of UV-absorbing impurities in the tetramethylammonium chloride (Alfa Inorganics) were removed by filtration through acid-­washed activated charcoal. The concentration of the tetramethylammonium chloride was then measured by chloride titration, and the absence of significant Na⁺ contamination was verified with a sodium-selective glass electrode (Microelectrodes Inc.). When the chelators contained two protonatable nitrogens, the curve of absorbance or fluorescence versus pH was analyzed by computerized least-squares fitting to the equations for two arbitrary proton equilibria (15), with the added assumption that the two protonations each caused the same change in extinction coefficient or fluorescence.
A short description of data set [3]: physchem. The note with it: 126 mm kcl, 14 mm nacl.
Method: The lowest curve ([Na⁺] = 0) was obtained with 5 µM SBFI in 130 mM KCl, 10 mM MOPS, KOH to pH 7.05, approximately 135 mM total K⁺. The highest curve ([Na⁺] = 135 mM) was analogously recorded from 5 µM SBFI in 130 mM NaCl, 10 mM MOPS, NaOH to pH 7.05. The intermediate curves from 1.35 to 94.5 mM Na⁺ were obtained by successively 1/100, 1/99, 3/98, 1/19, 1/9, 1/4, and 1/2 of the K⁺-rich SBFI solution by the SBFI in Na medium. The excitation bandwidth was 1.85 nm; emission was collected at 500 nm with 9.3 nm bandwidth. […] The lowest curve was obtained in 130 mM NaCl, 10 mM MOPS, NaOH to pH 7.05. The highest curve was in 130 mM KCl, 10 mM MOPS, KOH to pH 7.05. The intermediate curves with 13.5 to 112.5 mM K⁺ were obtained by iteratively replacing 1/10, 1/9, 1/6, 1/4, 1/3, and 1/2 of the low K⁺ medium by the 135 mM KCl solution of PBFP.
Proton dissociation constants of the chelators were measured by spectrophotometry or spectrofluorometry of buffered solutions, containing either 100 mM tetramethylammonium chloride as inert supporting electrolyte, or 121.5 mM K⁺, 13.5 mM Na⁺, and 1 mM Mg²⁺ to simulate the cation environment of vertebrate cytoplasm (14). […] When the chelators contained two protonatable nitrogens, the curve of absorbance or fluorescence versus pH was analyzed by computerized least-squares fitting to the equations for two arbitrary proton equilibria (15), with the added assumption that the two protonations each caused the same change in extinction coefficient or fluorescence. This assumption was based on the presence of two identical chromophores in each chelator and produced good fits to the experimental data.
Data set [4] in a line: Fluorescence excitation/emission spectra and quantum efficiency. Format: physicochemical. Particulars: for Quantum efficiency -Na⁺ / Quantum efficiency +Na⁺: relative to quinine bisulfate in 1 N H₂SO₄ (0.55); for Quantum efficiency +Na⁺: saturating Na⁺. The protocol:
(§1) • Footnote a: For molecular structures, see Fig. 1. • Footnote b: Except where otherwise noted, these dissociation constants were measured with the chelator dissolved in 0.1 M tetramethylammonium chloride, at a pH held high enough with 1-5 mM tris(hydroxymethyl)aminomethane for protonation to be insignificant. The absorbance spectrum, or the fluorescence excitation spectrum for those compounds (2GG, 2NN, 2OO, 2PP, 3NN) with acronyms was measured as a function of the concentration of cation added as a solid or concentrated aqueous solution of the halide salt. No correction has been made for the changing ionic strength of the solution, which started from 0.1 M and increased, but the absorbances and fluorescence amplitudes were applied for dilution of the dye and any slight quenching due to high concentrations of Cl⁻. • Footnote c: These protonation constants were determined in 0.1 M tetramethylammonium chloride, 10 mM tris(hydroxymethyl)aminomethane, titrated with 5 M H₃PO₄ to successively lower pH values measured with a Radiometer PHM84 meter. […] The first number is the wavelength in nanometers, followed in parentheses by 10⁻³ x the corresponding extinction coefficient, M⁻¹cm⁻¹. […] Emission maxima are not corrected for the spectral sensitivity of the emission detection. Quantum efficiencies were measured (13) by comparing the integral of the corrected emission spectrum with the corresponding integral for a solution of quinine bisulfate in 1 N H₂SO₄ of matched absorbance at the excitation wavelength.
UV absorbance spectra were recorded initially on a Cary 210 and later on a Perkin-Elmer Lambda Array 3840 spectrophotometer. Fluorescence excitation and emission spectra and quantum efficiencies were measured on a Spex Fluorolog 111 as described previously (13).

Data set [5] is described as follows: Effective Kd for Na⁺ against a K⁺ background. Format: binding. The procedure:
For comparison, Lehn's cryptand [2.2.1] (see ref. 5) is shown in the upper left hand corner. Below cryptand [2.2.1] are three generic types of crown ethers that have been prepared for use in the making some of the compounds of the present invention. To the right of the vertical dividing line are examples of some of the aromatic and heterocyclic substituents that can be attached to the nitrogens of the crown ethers. […] The lowest curve ([Na⁺] = 0) was obtained with 5 µM SBFI in 130 mM KCl, 10 mM MOPS, KOH to pH 7.05, approximately 135 mM total K⁺. The highest curve ([Na⁺] = 135 mM) was analogously recorded from 5 µM SBFI in 130 mM NaCl, 10 mM MOPS, NaOH to pH 7.05. […]
• Footnote a: For molecular structures, see Fig. 1. • Footnote b: Except where otherwise noted, these dissociation constants were measured with the chelator dissolved in 0.1 M tetramethylammonium chloride, at a pH held high enough with 1-5 mM tris(hydroxymethyl)aminomethane for protonation to be insignificant. The absorbance spectrum, or the fluorescence excitation spectrum for those compounds (2GG, 2NN, 2OO, 2PP, 3NN) with acronyms was measured as a function of the concentration of cation added as a solid or concentrated aqueous solution of the halide salt. […]

The nature of data set [6]: Cation titration followed by absorbance or fluorescence excitation spectra: Na⁺ binding. The procedure: as §1
Affinities for other cations were usually measured by titrating aqueous solutions of the indicator with metal chlorides added either as solid or from concentrated stock solutions, taking care to minimize dilution and correct for it. A convenient way to mass-produce premeasured micromole to millimole aliquots of solid NaCl or KCl was to pipet saline solutions into polypropylene micro test tubes and evaporate the water in an oven. The standard ionic background was again 100 mM tetramethylammonium chloride, usually with a few mM of tris(hydroxymethyl)-aminomethane base to hold the pH high enough (pH 8-9) to insure that protonation was negligible. This convenient titration procedure had the slight disadvantage that the ionic strength was not constant, especially when large quantities of a salt had to be added due to weak affinities. […] When constant ionic strength was desired, the chelator was made up at identical concentrations in matched solutions of NaCl, KCl, or tetramethylammonium chloride, then these stocks were mixed in the desired proportions. All measurements were made at room temperature (22°, ±2° C).

Data set [7] is described as follows: Cation titration followed by absorbance or fluorescence excitation spectra: K⁺ binding. The note with it: inert background cations such as tetramethylammonium or Cs⁺, high pH. The protocol: as §1
Affinities for other cations were usually measured by titrating aqueous solutions of the indicator with metal chlorides added either as solid or from concentrated stock solutions, taking care to minimize dilution and correct for it. […] This convenient titration procedure had the slight disadvantage that the ionic strength was not constant, especially when large quantities of a salt had to be added due to weak affinities. […]

The term pKa denotes the negative logarithm of the acid dissociation constant. A high value points to a group that holds its proton tightly. As for `COc1cc2cc(-c3ccc(C(=O)O)cc3C(=O)O)oc2cc1N1CCOCCOCCN(c2cc3oc(-c4ccc(C(=O)O)cc4C(=O)O)cc3cc2OC)CCOCC1` [Compound 2PP, N,N-bis-(2-(2,4-dicarboxyphenyl)-5-methoxybenzofuran-6-yl)-diaza[15]-crown-5], the “depression of fluorescence from the metal-free level” value in data set [1] (100 mM CsCl) was 9%; in data set [1] (200 mM CsCl), 14%; in data set [1] (500 mM CsCl), 21%. The pKa in “physchem [2]” turned out to be 6.1; in the data set “physchem [3]” it was 6.09. For the same molecule, the “Emission maxima -Na⁺” value in data set [4] (100 mM tetramethylammonium chloride, no Na⁺, not corrected for detector sensitivity) turned out to be 551 nanometers. Besides, the “emission peak with Ca²⁺” value in data set [4] (Ca²⁺ bound, large hypsochromic shift) is given as 432 nm. Also, the “excitation peak wavelength without Na⁺” value in data set [4] (Na⁺-K⁺ mixtures, sum 135 mM, K⁺ only) was 344 nm. The “excitation peak wavelength with Na⁺” value in data set [4] (Na⁺-K⁺ mixtures, sum 135 mM, Na⁺ bound) turned out to be 336 nm. The “Quantum efficiency -Na⁺” value is “.045” in data set [4] (no Na⁺, listed as 2PP (SBFI)) and 0.045 in data set [4] (no Na⁺, listed as SBFI). Further, the “Emission maxima +Na⁺” value in data set [4] (saturating NaCl, not corrected for detector sensitivity) was determined as 525 nanometers. For the same molecule, the figures for the “Quantum efficiency +Na⁺” value in data set [4] (listed as 2PP (SBFI)) and in data set [4] (listed as SBFI) were “.063” and 0.08, respectively. The Kd is 17 to 19 mM in data set [5] (Na⁺-K⁺ mixtures, sum held constant at 135 mM, 1 mM Mg²⁺ present, pH 7.05, read-out: apparent dissociation constant for Na⁺); 28 mM in data set [5] ([Na⁺]+[K⁺] = 280 mM (cytoplasm of marine organisms), read-out: effective Kd for SBFI-Na⁺); 7.4 mM in data set [6] (0.1 M tetramethylammonium chloride, 1-5 mM tris(hydroxymethyl)aminomethane, pH high enough for protonation to be insignificant, 22°, read-out: Dissociation constants (Kd) in mM for Na⁺); 5 to 20 mM in data set [6] (summary statement, conditions not specified, read-out: dissociation constant (Na⁺), range achieved). Moreover, the “Na⁺ affinity” value in data set [6] (association constant, inert background cation (tetramethylammonium)) came to 166 M⁻¹. Besides, the “K⁺ affinity” value in data set [7] is reported as 7 M⁻¹.
